Measured values from BigSolDB 2.1.

CN(C)CCC=C1c2ccccc2CCc2ccccc21.Cl
Conditions	solubility (mole fraction)
in 2-butanone, 283.23 K	0.00254
in 2-butanone, 288.16 K	0.00275
in 2-butanone, 293.2 K	0.00304
in 2-butanone, 298.15 K	0.00338
in 2-butanone, 303.16 K	0.00375
in 2-butanone, 308.2 K	0.00415
in 2-butanone, 313.15 K	0.00462
in 2-butanone, 318.67 K	0.00518
in 2-butanone, 323.35 K	0.00584
in DMF, 283.86 K	0.03
in DMF, 288.15 K	0.032
in DMF, 293.05 K	0.0353
in DMF, 298.04 K	0.0387
in DMF, 303.05 K	0.0425
in DMF, 308.17 K	0.047
in DMF, 313.3 K	0.0519
in DMF, 318.16 K	0.0571
in DMF, 323 K	0.0633
in THF, 283.09 K	0.000628
in THF, 288.07 K	0.000755
in THF, 293.82 K	0.000884
in THF, 298.23 K	0.00101
in THF, 303.1 K	0.00116
in THF, 309.04 K	0.00135
in THF, 313.13 K	0.00152
in THF, 317.96 K	0.00174
in THF, 323.16 K	0.00196
in acetone, 283.17 K	0.00226
in acetone, 288.13 K	0.00252
in acetone, 293.2 K	0.00282
in acetone, 298.07 K	0.00316
in acetone, 303.21 K	0.00354
in acetone, 308.19 K	0.00398
in acetone, 313.2 K	0.00448
in acetone, 318.2 K	0.00503
in acetone, 323.1 K	0.00565
in acetonitrile, 283.19 K	0.00773
in acetonitrile, 288.13 K	0.0089
in acetonitrile, 293.2 K	0.0102
in acetonitrile, 298.19 K	0.0118
in acetonitrile, 303.16 K	0.0136
in acetonitrile, 308.13 K	0.0157
in acetonitrile, 313.17 K	0.0183
in acetonitrile, 318.13 K	0.0212
in acetonitrile, 323.17 K	0.0249
in cyclohexanone, 282.93 K	0.00512
in cyclohexanone, 288.07 K	0.00585
in cyclohexanone, 293.11 K	0.0066
in cyclohexanone, 298.43 K	0.00743
in cyclohexanone, 303.09 K	0.00829
in cyclohexanone, 308.26 K	0.00952
in cyclohexanone, 313.27 K	0.011
in cyclohexanone, 319.7 K	0.0128
in cyclohexanone, 323.1 K	0.0144
in isobutanol, 283.25 K	0.0281
in isopentanol, 283.17 K	0.0122
in isopentanol, 288.19 K	0.0159
in isopentanol, 293.17 K	0.0202
in isopentanol, 298.2 K	0.0256
in isopentanol, 303.23 K	0.0326
in isopentanol, 308.17 K	0.0416
in isopentanol, 313.15 K	0.0532
in isopentanol, 318.2 K	0.0671
in isopentanol, 323.17 K	0.0827
in isopropanol, 283.16 K	0.00585
in isopropanol, 288.35 K	0.00786
in isopropanol, 293.16 K	0.0102
in isopropanol, 298.16 K	0.0133
in isopropanol, 303.05 K	0.0177
in isopropanol, 308.06 K	0.0239
in isopropanol, 313.54 K	0.034
in isopropanol, 318.16 K	0.0456
in isopropanol, 323.3 K	0.0592
in n-butanol, 283.1 K	0.0203
in n-butanol, 288.2 K	0.0261
in n-butanol, 293.13 K	0.0333
in n-butanol, 298.15 K	0.042
in n-butanol, 303.4 K	0.0537
in n-butanol, 308.2 K	0.0662
in n-butanol, 313.15 K	0.0803
in n-butanol, 318.16 K	0.0953
in n-butanol, 323.23 K	0.112
in n-pentanol, 288.23 K	0.0366
in n-pentanol, 293.21 K	0.0456
in n-pentanol, 298.07 K	0.0562
in n-pentanol, 303.07 K	0.0701
in n-pentanol, 308.2 K	0.0855
in n-pentanol, 313.16 K	0.1
in n-pentanol, 318.07 K	0.117
in n-pentanol, 323.07 K	0.133
in n-propanol, 283.17 K	0.0266
in n-propanol, 288.17 K	0.0349
in n-propanol, 293.16 K	0.0442
in n-propanol, 298.1 K	0.0557
in n-propanol, 303.07 K	0.0691
in n-propanol, 308.24 K	0.0851
in n-propanol, 313.16 K	0.1
in n-propanol, 318.07 K	0.116
in n-propanol, 323.2 K	0.13
in sec-butanol, 283.2 K	0.00725
in sec-butanol, 288.2 K	0.00934
in sec-butanol, 293.21 K	0.0121
in sec-butanol, 298.1 K	0.0156
in sec-butanol, 303.17 K	0.0207
in sec-butanol, 308.13 K	0.0278
in sec-butanol, 313.2 K	0.0367
in sec-butanol, 318.17 K	0.0483
in sec-butanol, 323.2 K	0.0637
